From ChEMBL document CHEMBL4665731, “Antifungal trichothecene sesquiterpenes obtained from the culture broth of marine-derived Trichoderma cf. brevicompactum and their structure-activity relationship” (2020)
Values after ≈ are worked out from the molar mass of the structure shown.

Key:
Assay type in all cases: functional
Candida albicans = assay: Antifungal activity against Candida albicans NBRC1594 assessed as reduction in fungal growth incubated for 24 hrs by CLSI broth microdilution method
Cryptococcus neoformans = assay: Antifungal activity against Cryptococcus neoformans ATCC 14116 assessed as reduction in fungal growth incubated for 72 hrs by CLSI broth microdilution method
Aspergillus fumigatus = assay: Antifungal activity against Aspergillus fumigatus NBRC 96918 assessed as reduction in fungal growth incubated for 48 hrs by CLSI broth microdilution method
Rhizopus arrhizus = assay: Antifungal activity against Rhizopus oryzae NBRC 31005 assessed as reduction in fungal growth incubated for 24 hrs by CLSI broth microdilution method

**Q.** Which results are given for `C[C@@H]1[C@H](O)[C@@H](C)/C=C/C=C/C=C/C=C/C=C/C=C/C=C/[C@H](O[C@@H]2O[C@H](C)[C@@H](O)[C@H](N)[C@@H]2O)C[C@@H]2O[C@](O)(C[C@@H](O)C[C@@H](O)[C@H](O)CC[C@@H](O)C[C@@H](O)CC(=O)O[C@H]1C)C[C@H](O)[C@H]2C(=O)O` [AMPHOTERICIN B]?
**A.** MIC90 (Candida albicans): 0.5 µg/mL (≈ 0.541 µM); MIC90 (Cryptococcus neoformans): 1 µg/mL (≈ 1.08 µM); MIC90 (Aspergillus fumigatus): 2 µg/mL (≈ 2.16 µM); MIC90 (Rhizopus arrhizus): 1 µg/mL (≈ 1.08 µM)
